This is an account of results in article PMC10060639, “Prediction and bioactivity of small-molecule antimicrobial peptides from Protaetia brevitarsis Lewis larvae” (Frontiers in Microbiology, 2023).

The test system of experiment [1] is E. coli. It counts as cell-based, Escherichia coli. The method, then:
(§1) E. coli and S. aureus CMCC(B) 26003 (1 × 10^6 CFU/mL) were incubated in MHB with various final physiological concentrations of serum salts (150 mM NaCl, 4.5 mM KCl, 1 mM MgCl2, and […]). 50 μL of these E. coli or S. aureus CMCC(B) 26003 suspensions and 50 μL of AMP (serially diluted two-fold to a final concentration of 256 μg/mL) were added to a 96-well plate and incubated at 37°C for 16–18 h ([Chou et al., 2016]). The MIC values were then determined. The experiment was conducted in triplicate.

The test system of experiment [2] is E. coli. It counts as cell-based, Escherichia coli. The protocol:
(§2) Staphylococcus aureus CMCC(B) 26003, B. thuringiensis, E. coli, and P. aeruginosa CMCC(B)10104 were cultured in NA medium and C. albicans CMCC(F) 98001 was cultured in SDA medium. They were incubated in a constant-temperature (bacteria: 37°C; fungi: 28°C) incubator for 16–20 h. Thereafter, single colonies were picked and incubated in 50 mL MHB at 160 rpm/min at the optimal growth temperature (bacteria: 37°C; fungi: 28°C). Microbial suspensions of 1 × 10^6 CFU/mL were then prepared ([Chen et al., 2016]).
(§3) The MIC values of five candidate peptides (FD4, FD10, FD12, FD14, and FD15), which were selected based on physicochemical properties and antimicrobial effects (determined by the agar punch method), were evaluated using a micro-broth dilution method ([Zhou and Zhou, 2018]). Serial two-fold dilutions of the candidate peptides were prepared in 96-well plates containing the same microbial inoculum (E. coli, P. aeruginosa CMCC(B)10104, B. thuringiensis, S. aureus CMCC(B) 26003, or C. albicans CMCC(F) 98001). The plates were incubated (bacteria: 37°C; fungi: 28°C) for 16–18 h. Ampicillin was used as the positive control. The MIC was defined as the lowest peptide concentration where no visible growth occurred ([Diao et al., 2014]). The experiment was conducted in triplicate.
The source holds these as a separate data set.

Experiment [3] deals with S. aureus CMCC(B) 26003. Type of experiment: cell-based, Staphylococcus aureus. The protocol: as §1
Experiment [4] relates to S. aureus CMCC(B) 26003. It counts as cell-based, Staphylococcus aureus. The protocol:
as §2, §3
This is another data set of the same source.

Experiment [5] deals with B. thuringiensis. Type of experiment: cell-based, Bacillus thuringiensis. The method, then:
as §2, §3

The subject of experiment [6] is E. coli. In words: agar punch method, inhibition circle. The note with it: 6 mm hole, 55 μL of 1 mg/mL, NA, 37°C, 16–18 h, mean ± SD, three replicates, + control given per plate group. Type of experiment: cell-based, Escherichia coli. The method, then:
as §2
(§4) 100 μL of 1 × 10^6 CFU/mL microbial suspension (E. coli, P. aeruginosa CMCC(B)10104, B. thuringiensis, S. aureus CMCC(B) 26003, or C. albicans CMCC(F) 98001) was evenly applied to dishes containing 20 mL NA (bacteria) or SDA (fungi). After the microbial solution solidified, six holes per dish were punched with a sterile pipette tip of 6 mm in diameter, with each hole spaced >20 mm apart and > 10 mm apart from the edge of the dish. […] Next, 55 μL of 1 mg/mL control/treatment was added to each hole and incubated in a constant-temperature (bacteria: 37°C; fungi: 28°C) incubator for 16–18 h ([Chen et al., 2016]; [Gong et al., 2022]), with three replicates for each treatment group. The diameter of the inhibition circle was measured using ImageJ software (National Institutes of Health, United States) in order to preliminarily determine whether the candidate peptides had inhibitory activity.

Experiment [7] has as its system C. albicans CMCC(F) 98001. It counts as cell-based, Candida albicans. The method, then: as §2, §3
The subject of experiment [8] is C. albicans CMCC(F) 98001. In words: agar punch method, inhibition circle. The note with it: 6 mm hole, 55 μL of 1 mg/mL, SDA, 28°C, 16–18 h, mean ± SD, three replicates, + control given per plate group. It counts as cell-based, Candida albicans. The protocol:
as §2, §4

Experiment [9] deals with B. thuringiensis. Nature of the experiment: agar punch method, inhibition circle. It counts as cell-based, Bacillus thuringiensis. As to conditions: 6 mm hole, 55 μL of 1 mg/mL, NA, 37°C (Fig. S3C: 30°C), 16–18 h, mean ± SD, three replicates, + control given per plate group. The protocol:
as §2, §4

The test system of experiment [10] is P. aeruginosa CMCC(B)10104. In words: agar punch method, inhibition circle. Type of experiment: cell-based, Pseudomonas aeruginosa. The note with it: 6 mm hole, 55 μL of 1 mg/mL, NA, 37°C, 16–18 h, mean ± SD, three replicates, + control given per plate group. The protocol: as §2, §4
Experiment [11] has as its system P. aeruginosa CMCC(B)10104. It counts as cell-based, Pseudomonas aeruginosa. The method, then:
as §2, §3

Experiment [12] deals with E. coli. In words: time-kill assay. The note with it: 2× MIC, MHB with 10^6 CFU/mL, 37°C, 100 rpm, colony counting, n = 3. It counts as cell-based, Escherichia coli. The method, then:
(§5) The kill-time curve assay method was used to investigate the bactericidal effects of the […] according to the technique described by [Joray et al. (2011)]. A time–kill assay was used to examine the rate at which three AMPs (FD10, FD12, and FD15) killed two microbes (S. aureus CMCC(B) 26003 and E. coli) in vitro over time, based on the number of viable bacteria left at various time points after AMP exposure. Briefly, AMP at 2× MIC was added to MHB containing 10^6 CFU/mL S. aureus CMCC(B) 26003 or E. coli and the mixture was then incubated at 37°C and 100 rpm. At various time points, a sample was taken, serially diluted, and plated on MHA for colony counting ([Flamm et al., 2019]).

Experiment [13] concerns S. aureus CMCC(B) 26003. Nature of the experiment: time-kill assay. It counts as cell-based, Staphylococcus aureus. The note with it: 2× MIC, MHB with 10^6 CFU/mL, 37°C, 100 rpm, colony counting, n = 3. The protocol:
as §5

Experiment [14] has as its system S. aureus CMCC(B) 26003. Nature of the experiment: agar punch method, inhibition circle. It counts as cell-based, Staphylococcus aureus. As to conditions: 6 mm hole, 55 μL of 1 mg/mL, NA, 37°C, 16–18 h, mean ± SD, three replicates, + control given per plate group. The protocol: as §2, §4
The mark [15] stands for this setting: micro-broth dilution, two-fold dilutions, 37°C, 16–18 h, no visible growth, triplicate.

Like-named read-outs stand apart in the source and are kept apart here. Ends that are not written are not given here. Bounds are passed on as bounds.

On to KIYVLLRRQA [FD12], for which, in experiment [1], the “MIC, Control” value was determined as 32 µg/mL; the “MIC, FeCl3” value was 32 µg/mL; the “MIC, KCl” value was determined as 16 µg/mL; the “MIC, MgCl2” value was found to be 64 µg/mL. Also, the “MIC, NaCl” value in [1] is 64 µg/mL. Further, in experiment [2], the “MIC (μg/mL) E. coli” value came out at 32 µg/mL. For the same substance, in experiment [3] (CMCC(B) 26003), the “MIC, Control” value came out at 16 µg/mL; the “MIC, FeCl3” value is 32 µg/mL; the “MIC, KCl” value amounted to 8 µg/mL; the “MIC, MgCl2” value was determined as 32 µg/mL. Besides, the “MIC, NaCl” value in [3] (CMCC(B) 26003) was determined as 32 µg/mL. For the same substance, the “MIC (μg/mL) S. aureus CMCC(B) 26003” value in [4] (CMCC(B) 26003) was 16 µg/mL. Also, in experiment [5], the “MIC (μg/mL) B. thuringiensis” value stood at 128 µg/mL.
On to “STLHLVLRLR-NH2 [FD15, FD16 with -NH2 added to the terminal]”, for which the “MIC, MgCl2” value in experiment [1] (E. coli, MHB with 1 mM MgCl2, 37°C, 16–18 h, triplicate) came out at 64 µg/mL; in experiment [3] (S. aureus CMCC(B) 26003, MHB with 1 mM MgCl2, 37°C, 16–18 h, triplicate), 64 µg/mL. Also, the “MIC, FeCl3” value in experiment [1] (E. coli, MHB with 4 mM FeCl3, 37°C, 16–18 h, triplicate) was found to be 16 µg/mL; in experiment [3] (S. aureus CMCC(B) 26003, MHB with 4 mM FeCl3, 37°C, 16–18 h, triplicate), 32 µg/mL. The “MIC, KCl” value in experiment [1] (E. coli, MHB with 4.5 mM KCl, 37°C, 16–18 h, triplicate) was 64 µg/mL; in experiment [3] (S. aureus CMCC(B) 26003, MHB with 4.5 mM KCl, 37°C, 16–18 h, triplicate), 32 µg/mL. The “MIC, NaCl” value in experiment [1] (E. coli, MHB with 150 mM NaCl, 37°C, 16–18 h, triplicate) amounted to 64 µg/mL; in [3] (S. aureus CMCC(B) 26003, MHB with 150 mM NaCl, 37°C, 16–18 h, triplicate), 64 µg/mL. The “MIC, Control” value is 32 µg/mL in [1] (E. coli, MHB, absence of physiological salts, 37°C, 16–18 h, triplicate) and 16 µg/mL in [3] (S. aureus CMCC(B) 26003, MHB, absence of physiological salts, 37°C, 16–18 h, triplicate). In [2] (setting [15]), the “MIC (μg/mL) E. coli” value is 32 µg/mL. In addition, in experiment [6], the “Inhibition circle diameter (mm) E. coli” value came out at 11.18 ± 0.38 mm. For the same substance, the “MIC (μg/mL) C. albicans CMCC(F) 98001” value in [7] (micro-broth dilution, two-fold dilutions, 28°C, 16–18 h, no visible growth, triplicate) is recorded as “- (−Indicated that the MIC was greater than 256 μg/mL.)”. In addition, in experiment [8], the “Inhibition circle diameter (mm) C. albicans CMCC(F) 98001” value was found to be 0 mm. Also, in experiment [9], the “Inhibition circle diameter (mm) B. thuringiensis” value is on record as 9.15 ± 0.44 mm. The “Inhibition circle diameter (mm) P. aeruginosa CMCC(B)10104” value in experiment [10] is 0 mm. Besides, the “MIC (μg/mL) P. aeruginosa CMCC(B)10104” value in experiment [11] (setting [15]) is “- (−Indicated that the MIC was greater than 256 μg/mL.)”. Moreover, the “MIC (μg/mL) S. aureus CMCC(B) 26003” value in experiment [4] (setting [15]) came out at 16 µg/mL. For the same substance, the “time within which almost all E. coli cells were killed” value in experiment [12] is reported as no more than 1 h. The “MIC (μg/mL) B. thuringiensis” value in [5] (setting [15]) worked out at 128 µg/mL. The “time within which almost all S. aureus cells were killed” value in experiment [13] is given as no more than 1 h. The “Inhibition circle diameter (mm) S. aureus CMCC(B) 26003” value in [14] is 10.02 ± 0.22 mm.
As for VFRLKKWIQKVI [FD10], in experiment [1], the “MIC, Control” value was determined as 8 µg/mL; the “MIC, FeCl3” value came out at 4 µg/mL; the “MIC, KCl” value was 4 µg/mL; the “MIC, MgCl2” value was found to be 16 µg/mL. Also, the “MIC, NaCl” value in experiment [1] is 16 µg/mL. Besides, the “MIC (μg/mL) E. coli” value in experiment [2] came to 8 µg/mL. Besides, the “MIC (μg/mL) C. albicans CMCC(F) 98001” value in [7] (CMCC(F) 98001) is 16 µg/mL. Also, in experiment [3] (CMCC(B) 26003), the “MIC, Control” value amounted to 16 µg/mL; the “MIC, FeCl3” value came out at 16 µg/mL; the “MIC, KCl” value is 8 µg/mL; the “MIC, MgCl2” value was found to be 32 µg/mL. Also, the “MIC, NaCl” value in experiment [3] (CMCC(B) 26003) was determined as 32 µg/mL. Besides, the “MIC (μg/mL) P. aeruginosa CMCC(B)10104” value in [11] (CMCC(B)10104) came to 8 µg/mL. In addition, in [4] (CMCC(B) 26003), the “MIC (μg/mL) S. aureus CMCC(B) 26003” value is 16 µg/mL. For the same substance, the “MIC (μg/mL) B. thuringiensis” value in experiment [5] was determined as 8 µg/mL.
